Measured values as given in patent US20260258039A1, “AROMATIC COMPOUND, METHOD FOR PREPARING SAME, AND USE THEREOF IN PREPARATION OF ESTROGEN RECEPTOR DEGRADER” (Hinova Pharmaceuticals Inc., priority 2022, published 2026).
Read-outs that look alike come from different tables or passages of the source.

Assays:
Format in all cases: cell-based
ER [1] = target: T1, ER (Homo sapiens, UniProt P03372); experiment: Degradation activities on ER (Western blotting) in T47D breast cancer cells; conditions: 24 h, Western blot
T1 construct: T47D breast cancer cells were subcultured in cell culture medium; endogenous in cells; host or cells: T47D breast cancer cells
T1 sequence (P03372 1-595): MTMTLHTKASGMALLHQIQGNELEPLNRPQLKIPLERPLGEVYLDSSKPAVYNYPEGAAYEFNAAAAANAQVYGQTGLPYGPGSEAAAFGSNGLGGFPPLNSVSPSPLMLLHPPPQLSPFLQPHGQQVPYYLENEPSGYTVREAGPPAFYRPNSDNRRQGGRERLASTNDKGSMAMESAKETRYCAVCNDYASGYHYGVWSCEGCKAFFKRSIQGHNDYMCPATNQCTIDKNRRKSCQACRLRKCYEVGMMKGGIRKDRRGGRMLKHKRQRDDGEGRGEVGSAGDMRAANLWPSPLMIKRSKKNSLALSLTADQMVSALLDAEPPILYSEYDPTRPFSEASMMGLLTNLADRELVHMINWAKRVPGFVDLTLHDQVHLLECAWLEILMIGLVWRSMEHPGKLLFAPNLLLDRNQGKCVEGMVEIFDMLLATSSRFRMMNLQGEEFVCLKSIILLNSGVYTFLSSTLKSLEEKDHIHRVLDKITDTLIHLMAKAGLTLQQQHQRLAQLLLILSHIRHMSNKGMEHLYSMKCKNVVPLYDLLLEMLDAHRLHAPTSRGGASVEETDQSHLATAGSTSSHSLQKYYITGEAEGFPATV
Experimental: T47D breast cancer cells were subcultured in cell culture medium, and the cells in good growth condition were seeded into 6-well plate at 2 mL/well, with 2.5×10^5 cells per well. The cells were incubated overnight in a 37° C. incubator under 5% CO2. The drug was prepared into 10 mM stock solution with dimethyl sulfoxide (DMSO). Prior to use, the stock solution was diluted with DMSO in a ratio of 1:3. […] of the diluted compound was added to the cell culture wells (to ensure a DMSO concentration of 0.1% in the culture system), and each concentration was repeated twice. The plate were gently shaken to mix. Additionally, the negative control wells (containing equal amount of DMSO) and the positive control wells were set up. After 24 hours of culture, the cells were lysed with RIPA cell lysis buffer to extract proteins, and the protein concentration was measured using a BCA kit. The protein loading buffer (5×) was added, and the plate was heated at 100° C. for 5 min. Then, the sample was stored at −20° C. […] of protein collected from each well was loaded onto a polyacrylamide gel for electrophoresis. The protein is transferred from the polyacrylamide gel to a PVDF membrane, blocked with 5% skim milk at room temperature for 1 h, and incubated overnight at 4° C. with primary antibodies Anti-ERα rabbit mAb (CST, Cat #: 8644S) and Anti-GAPDH rabbit mAb (CST, Cat #: 2118L). The membrane was washed three times with TBST solution, with 10 min for each time. The secondary antibody (horseradish peroxidase-labeled goat anti-rabbit IgG) was incubated at room temperature for 2 h, and then the membrane was washed three times with TBST solution, with 10 min for each time. Finally, ECL chromogenic solution was added for color development, and an automatic chemiluminescence instrument was used to take pictures. Images were collected and analyzed.
The degradation activities of the compounds according to the present invention towards ER, as tested by western blotting, are presented in Table 2

ER [2] = target: T1, ER; experiment: Degradation activities on ER (ELISA) in T47D breast cancer cells; conditions: for DC50: concentration required to degrade 50% of the target protein
Method in brief: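 T47D cells were seeded at 2.5×10^4/well, grown 3 days at 37 °C, 5% CO2, then exposed 24 h to compound at 100, 25, 6.25, 1.56, 0.39 and […] nM (final). ER protein was quantified by sandwich ELISA with HRP/TMB read at 450 nm, and DC50 and Dmax came from dose-response fits.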

[3] = test system: MCF-7 breast cancer cells; experiment: Inhibition of proliferation of MCF-7 breast cancer cells (agarose culture, CellTiter-Glo 3D); conditions: Homo sapiens, MCF7, 360 h, MCF-7 cells, 15 days of cultivation; read-out: IC50
Experimental: After 1.6% agarose and 0.7% agarose were sterilized at high temperature, they were cooled to around 50° C., and placed in a 42° C. water bath for later use. MCF-7 breast cancer cells were subcultured in complete cell culture medium, and cells in good growth condition were digested and counted for future use. 50 µL of 1.6% agarose mixed with 2× culture medium at a ratio of 1:1 was spread into the bottom of 96-well plate, and allowed to cool and solidify. 0.7% agarose was mixed with diluted cell suspension in a ratio of 1:1, and then 50 µL of the mixture of gel and cells was added to each well, with 2000 cells for each well; the mixture was allowed to cool and solidify at room temperature. 50 μL of culture medium was added to the plate containing cells, and the plate was placed in a 37° C., 5% CO2 incubator and cultured for 24 h. The drug was prepared into 10 mM stock solution with dimethyl sulfoxide (DMSO). The stock solution was diluted in a ratio of 1:3, to obtain 9 concentration gradients. Then, each concentration of compound solution was further diluted with culture medium in 1:250 (to ensure a DMSO concentration of 0.1% in the culture system). Two replicate wells was set for each concentration. 50 μL of the diluted compound solution was added to the cell culture wells (with final concentrations of 10 μM, 3.3 μM, 1.1 μM, 0.37 μM . . . ). The plate was gently shaken for mixing. Additionally, 3 negative control wells only containing cells and 3 blank control wells only containing culture medium were set up (each of the 6 wells was added with 50 μL of DMSO diluted with culture medium in a ration of 1:250). After 15 days of cultivation, the cell plates and CellTiter-Glo 3D Cell Viability were taken out and equilibrated to room temperature in advance. 80 μL of culture medium were aspirated and discarded from the cell plate, and 120 µL of CellTiter-Glo 3D Cell Viability solution was added to each well. The plates were centrifuged at 1200 rpm/min for 5 min, and then placed in the dark and kept for 25 min. The […] were measured using a multi-function microplate reader. The data were analyzed using the Dose-response-inhibition equation in GraphPad Prism8 software, and the IC50 values were obtained, as shown in Table 3.

[4] = T47D cells, 24 h, ELISA, maximum percentage of target protein degraded, read-out: Dmax

| Percentage reduction of ER (ER [1]; compound concentration 10 nM) | DC50 (ER [2]; T47D cells, 24 h, ELISA) | Dmax (ER [2]; [4]) | Percentage reduction of ER (ER [1]; compound concentration 100 nM) | Percentage reduction of ER (ER [1]; compound concentration 1 nM) | IC50 [3] | Structure (SMILES) | Dmax (ER [2]; T47D) |
| --- | --- | --- | --- | --- | --- | --- | --- |
|  | > 100 nM | < 50% | 57% |  |  | O=C1CCC(N2C(=O)c3ccc(N4CC5(CN(CC6CCN(c7ccc([C@@H]8c9ccc(O)cc9CC[C@@H]8c8ccccc8)cc7)CC6)C5)C4)cc3C2=O)C(=O)N1 (stereo partly drawn) [Example 54, 2-(2,6-dioxopiperidin-3-yl)-5-(6-((1-(4-((1R,2S)-6-hydroxyl-2-phenyl-1,2,3,4-tetrahydronaphthalen-1-yl)phenyl)piperidin-4-yl)methyl)-2,6-diazaspiro[3.3]heptan-2-yl)isoinodolin-1,3-dione] |  |
|  | > 100 nM | < 50% |  | 39% |  | O=C1CCC(N2C(=O)c3ccc(N4CCC5(CCN(CC6CCN(c7ccc([C@@H]8c9ccc(O)cc9CC[C@@H]8c8ccccc8)cc7)CC6)C5)C4)cc3C2=O)C(=O)N1 (stereo partly drawn) [Example 53, 2-(2,6-dioxopiperidin-3-yl)-5-(7-((1-(4-((1R,2S)-6-hydroxyl-2-phenyl-1,2,3,4-tetrahydronaphthalen-1-yl)phenyl)piperidin-4-yl)methyl)-2,7-diazaspiro[4.4]nonane-2-yl)isoinodolin-1,3-dione] |  |
| 71% | < 10 nM | 50 to 75% |  |  |  | O=C1CCC(N2C(=O)c3ccc(N4CCC(CN5CCC6(CC5)CN(c5ccc([C@@H]7c8ccc(O)cc8CC[C@@H]7c7ccccc7)cc5)C6)CC4)cc3C2=O)C(=O)N1 (some centres unmarked) [Example 1] |  |
|  | > 100 nM | < 50% |  | 53% |  | O=C1CCC(N2Cc3cc(N4CCC5(CCN(CC6CCN(c7ccc([C@@H]8c9ccc(O)cc9CC[C@@H]8c8ccccc8)cc7)CC6)C5)C4)ccc3C2=O)C(=O)N1 (stereo partly drawn) [Example 2, 3-(5-(7-((1-(4-((1R,2S)-6-hydroxyl-2-phenyl-1,2,3,4-tetrahydronaphthalen-1-yl)phenyl)piperidin-4-yl)methyl)-2,7-diazaspiro[4.4]nonane-2-yl)-1-oxoisoinodolin-2-yl)piperidin-2,6-dione] |  |
|  |  |  |  | 50% |  | O=C1CCC(N2C(=O)c3ccc(N4CC5(CCN(CC6CCN(c7ccc([C@H]8c9ccc(O)cc9OC[C@H]8c8ccccc8)cc7)CC6)CC5)C4)cc3C2=O)C(=O)N1 (stereo partly drawn) [Example 80, 2-(2,6-dioxopiperidin-3-yl)-5-(7-((1-(4-((3R,4S)-7-hydroxyl-3-phenylchroman-4-yl)phenyl)piperidin-4-yl)methyl)-2,7-diazaspiro[3.5]nonane-2-yl)isoinodolin-1,3-dione] |  |

Second part, the compound before the results:

| Structure (SMILES) | Percentage reduction of ER (ER [1]; compound concentration 10 nM) | DC50 (ER [2]; T47D cells, 24 h, ELISA) | Dmax (ER [2]; [4]) | Percentage reduction of ER (ER [1]; compound concentration 100 nM) | Percentage reduction of ER (ER [1]; compound concentration 1 nM) | IC50 [3] | Dmax (ER [2]; T47D) |
| --- | --- | --- | --- | --- | --- | --- | --- |
| O=C1CCC(N2C(=O)c3ccc(N4CC5CN(CC6CCN(c7ccc([C@@H]8c9ccc(O)cc9CC[C@@H]8c8ccccc8)cc7)CC6)CC5C4)cc3C2=O)C(=O)N1 (stereo partly drawn) [Example 25, 2-(2,6-dioxopiperidin-3-yl)-5-(5-((1-(4-((1R,2S)-6-hydroxyl-2-phenyl-1,2,3,4-tetrahydronaphthalen-1-yl)phenyl)piperidin-4-yl)methyl)hexahydropyrrolo[3,4-c]pyrrole-2(1H)-yl)isoinodolin-1,3-dione] | 47% | > 100 nM | < 50% |  |  |  |  |
| O=C1CCC(N2Cc3cc(N4CC5(CCN(CC6CCN(c7ccc([C@@H]8c9ccc(O)cc9CC[C@@H]8c8ccccc8)cc7)CC6)C5)C4)ccc3C2=O)C(=O)N1 (stereo partly drawn) [Example 31, 3-(5-(6-((1-(4-((1,2-cis)-6-hydroxyl-2-phenyl-1,2,3,4-tetrahydronaphthalen-1-yl)phenyl)piperidin-4-yl)methyl)-2,6-diazaspiro[3.4]octane-2-yl)-1-oxoisoinodolin-2-yl)piperidin-2,6-one] |  |  |  | 50% |  | 11 to 50 nM |  |
| O=C1CCC(N2Cc3cc(N4CC5(CN(CC6CCN(c7ccc([C@@H]8c9ccc(O)cc9OC[C@@H]8c8ccccc8)cc7)CC6)C5)C4)ccc3C2=O)C(=O)N1 (stereo partly drawn) [Example 57, 3-(5-(6-((1-(4-((3S,4R)-7-hydroxyl-3-phenyl-chroman-4-yl)phenyl)piperidin-4-yl)methyl)-2,6-diazaspiro[3.3]heptan-2-yl)-1-oxoisoinodolin-2-yl)piperidin-2,6-one] |  |  |  |  | 77% | < 10 nM |  |
| O=C1CCC(N2Cc3cc(N4CCC(N5CC6(CCN(c7ccc([C@@H]8c9ccc(O)cc9CC[C@@H]8c8ccccc8)cc7)CC6)C5)CC4)ccc3C2=O)C(=O)N1 (some centres unmarked) [Example 12] | 84% | 10 to 50 nM |  |  |  |  | > 75% |
| O=C1CCC(N2C(=O)c3ccc(N4CC(N5CCN(c6ccc([C@@H]7c8ccc(O)cc8CC[C@@H]7c7ccccc7)cc6)CC5)C4)cc3C2=O)C(=O)N1 (stereo partly drawn) [Example 55, 2-(2,6-dioxopiperidin-3-yl)-5-(3-(4-(4-((1R,2S)-6-hydroxyl-2-phenyl-1,2,3,4-tetrahydronaphthalen-1-yl)phenyl)piperazine-1-yl)azetidin-1-yl)isoinodolin-1,3-dione] |  | > 100 nM | < 50% | 25% |  |  |  |
| O=C1CCC(N2Cc3cc(N4CC5(CCN(CC6CCN(c7ccc([C@H]8c9ccc(O)cc9OC[C@H]8c8ccccc8F)cc7)CC6)CC5)C4)ccc3C2=O)C(=O)N1 (stereo partly drawn) [Example 34, 3-(5-(7-((1-(4-((3R,4S)-3-(2-fluorophenyl)-7-hydroxychroman-4-yl)phenyl)piperidin-4-yl)methyl)-2,7-diazaspiro[3.5]nonane-2-yl)-1-oxoisoindol-2-yl)piperidin-2,6-dione] |  | > 100 nM | < 50% | 51% |  |  |  |
| O=C1CCC(N2Cc3cc(N4CCC5(CC4)CN(CC4CCN(c6ccc([C@@H]7c8ccc(O)cc8CC[C@@H]7c7ccccc7)cc6)CC4)C5)ccc3C2=O)C(=O)N1 (stereo partly drawn) [Example 27, 3-(5-(2-((1-(4-((1R,2S)-6-hydroxyl-2-phenyl-1,2,3,4-tetrahydronaphthalen-1-yl)phenyl)piperidin-4-yl)methyl)-2,7-diazaspiro[3.5]nonan-7-yl)-1-oxoisoinodolin-2-yl)piperidin-2,6-dione] |  | > 100 nM |  |  | 78% |  | < 50% |
